Results on two molecules are retold here after patent EP0453621A1, “Polymer-modified drugs having enhanced biological and pharmacological activities” (W.R. Grace & Co.-Conn., priority 1990, dated 1991).

The nature of data set [1]: Circulatory half-life of radioiodinated peptide or conjugate after tail vein injection. The class given is in vivo, C57B1/6 mice. Particulars: i.v. tail vein. The procedure:
The conjugate from Example XIII was passed over a disposable Sephadex G25 column (PD10 from Pharmacia, Inc.) to separate free from polymer-bound peptide. Confirmation of the purity of the conjugate was obtained by HPLC. About 45 µg of conjugate (based on peptide) were radiolabeled with 125-iodine using the well known chloramine-T procedure. Free 125-iodine was separated from radiolabeled conjugate using a PD10 column. Of the original 30 µCi of Na¹²⁵I used for the iodination, more than 23 µCi were incorporated into the conjugate.
Portions of the radiolabeled YRGDS-Prepolymer A conjugate from Example XIV were injected into the tail veins of C57B1/6 mice. As a control, YRGDS free peptide was radioiodinated by the procedure described in Example XIV and also injected. At various times blood was withdrawn from the animals and the amount of radioiodine remaining in the circulation determined using a gamma counter. A biphasic clearance curve (α:β) was obtained for both species. […] Thus by coupling the peptide to this polymer its clearance rate from the circulation is markedly extended.

Data set [2] deals with B16 cell. As to the kind of experiment: Inhibition of B16 cell spreading on a plate coated with fibronectin. The conditions noted are these: the conjugate value is based on octapeptide, read-out: concentration for 50% inhibition of cell spreading. The procedure: The biological activity of the conjugate formed in Example XV was determined in an assay which measures inhibition of B16 cell spreading on a plate coated with fibronectin.

Ends that are not written are not given here. Peptide text beside a SMILES is read from it.

As to `N=C(N)NCCC[C@H](NC(=O)[C@@H](N)Cc1ccc(O)cc1)C(=O)NCC(=O)N[C@@H](CC(=O)O)C(=O)N[C@@H](CO)C(=O)O` [YRGDS, tyr-arg-gly-asp-ser] (H-YRGDS-OH), the t½α in data set [1] (first phase of biphasic clearance) was 30 s. Besides, the “label cleared in initial phase” value in data set [1] (in one minute, 125-iodine label) is recorded as “about 75%”. As for “GRGDSPAC-Prepolymer A conjugate: peptide gly-arg-gly-asp-ser-pro-ala-cys (SEQ. ID No. 3) conjugated with Prepolymer A (also: conjugated with Prepolymer A, site not given here)”, the IC50 in data set [2] came to 340 µM.
